# Measured values reported in patent US11312719B2, “9-substituted amino triazolo quinazoline derivatives as adenosine receptor antagonists, pharmaceutical compositions and their use” (Merck Sharp & Dohme Corp., priority 2018, dated 2022).
# How the values were obtained:
# human A2B receptors = human A2B receptors (Homo sapiens (Human), UniProt P29275); test: A2B antagonism in cAMP cell-based assay (LANCE cAMP, HEK293); settings: HEK293 cells expressing human A2B receptor
# Summary of the method: (§1)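 HEK293 cells expressing human A2A or A2B, in HBSS/5 mM HEPES/200 nM rolipram, were preincubated with compound (0.5–10,000 nM, 0.25% DMSO) 30 min at 37° C. Adenosine was then added from 300 nM (A2A) or 600 nM (A2B) solution for 30 min.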
# human A2A receptors = human A2A receptors (Homo sapiens (Human), UniProt P29274); test: A2A antagonism in cAMP cell-based assay (LANCE cAMP, HEK293); settings: HEK293 cells expressing human A2A receptor
# Chain of human A2A receptors (P29274 whole entry): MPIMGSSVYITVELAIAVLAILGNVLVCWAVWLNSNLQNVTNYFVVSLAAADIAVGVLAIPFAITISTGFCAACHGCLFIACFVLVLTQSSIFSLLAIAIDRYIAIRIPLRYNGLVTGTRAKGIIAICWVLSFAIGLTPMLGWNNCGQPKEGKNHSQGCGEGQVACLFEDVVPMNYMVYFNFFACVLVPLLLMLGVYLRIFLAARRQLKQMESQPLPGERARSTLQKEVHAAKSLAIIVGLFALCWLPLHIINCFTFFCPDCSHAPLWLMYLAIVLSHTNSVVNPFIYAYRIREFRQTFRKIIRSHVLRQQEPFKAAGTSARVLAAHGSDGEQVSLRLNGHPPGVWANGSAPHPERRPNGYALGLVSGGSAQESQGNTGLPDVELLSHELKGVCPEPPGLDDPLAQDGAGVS
# Summary of the method: as §1
# Chain of human A2B receptors (P29275 whole entry): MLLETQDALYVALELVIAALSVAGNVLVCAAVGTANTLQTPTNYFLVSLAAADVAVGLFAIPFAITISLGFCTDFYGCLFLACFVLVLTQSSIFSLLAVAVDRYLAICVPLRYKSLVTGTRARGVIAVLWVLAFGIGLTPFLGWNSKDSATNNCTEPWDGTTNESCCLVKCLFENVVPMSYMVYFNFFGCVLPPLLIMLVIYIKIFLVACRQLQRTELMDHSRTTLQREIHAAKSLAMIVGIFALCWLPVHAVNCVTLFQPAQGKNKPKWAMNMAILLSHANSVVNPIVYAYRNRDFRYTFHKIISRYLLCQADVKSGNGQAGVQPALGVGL
Compound,IC50 (human A2B receptors) [nM],IC50 (human A2A receptors) [nM]
"COc1cc2nc(N)n3nc(C4CCC(C)N(c5cnn(CC6(O)CC6)c5)C4)nc3c2cc1F (single isomer, unassigned) [Example 272, 1-((4-((2S,5R or 2R,5S)-5-(5-amino-9-fluoro-8-methoxy-[1,2,4]triazolo[1,5-c]quinazolin-2-yl)-2-methylpiperidin-1-yl)-1H-pyrazol-1-yl)methyl)cyclopropan-1-ol]",5800,43.6
"COc1cc2nc(N)n3nc(C4CCC(C)N(c5cnn(CC6(O)CC6)c5)C4)nc3c2cc1F (single isomer, unassigned) [Example 273, 1-((4-((2R,5S or 2S,5R)-5-(5-amino-9-fluoro-8-methoxy-[1,2,4]triazolo[1,5-c]quinazolin-2-yl)-2-methylpiperidin-1-yl)-1H-pyrazol-1-yl)methyl)cyclopropan-1-ol]",26.7,1.2
"COc1cc2nc(N)n3nc(C4CC(C)CN(c5cnn(CC(C)(C)O)c5C)C4)nc3c2cc1F (single isomer, unassigned) [Example 274, 1-((4-((3R,5S or 3S,5R)-5-(5-amino-9-fluoro-8-methoxy-[1,2,4]triazolo[1,5-c]quinazolin-2-yl)-5-methylpiperidin-1-yl)-5-methyl-1H-pyrazol-1-yl)-2-methylpropan-2-ol]",70.5,0.7
"COc1cc2nc(N)n3nc(C4CC(C)CN(c5cnn(CC(C)(C)O)c5C)C4)nc3c2cc1F (single isomer, unassigned) [Example 275, 1-((4-((3S,5R or 3R,5S)-5-(5-amino-9-fluoro-8-methoxy-[1,2,4]triazolo[1,5-c]quinazolin-2-yl)-5-methylpiperidin-1-yl)-5-methyl-1H-pyrazol-1-yl)-2-methylpropan-2-ol]",2470,15.6
"COc1cc2nc(N)n3nc([C@@H]4CCCN(c5cnn(C(C)(C)CO)c5)C4)nc3c2cc1F [Example 151, (R)-2-(4-(3-(5-amino-9-fluoro-8-methoxy-[1,2,4]triazolo[1,5-c]quinazolin-2-yl)piperidin-1-yl)-1H-pyrazol-1-yl)-2-methylpropan-1-ol]",56.9,3.8
"COc1cc2nc(N)n3nc([C@@H]4CCCN(c5cnn(CCC(C)(C)O)c5)C4)nc3c2cc1F [Example 152, (R)-4-(4-(3-(5-amino-9-fluoro-8-methoxy-[1,2,4]triazolo[1,5-c]quinazolin-2-yl)piperidin-1-yl)-1H-pyrazol-1-yl)-2-methylbutan-2-ol]",371,5.9
"CC(C)(O)Cn1cc(N2CCC[C@@H](c3nc4c5cc(F)c(OC(F)F)cc5nc(N)n4n3)C2)cn1 [Example 153, (R)-1-(4-(3-(5-amino-8-(difluoromethoxy)-9-fluoro-[1,2,4]triazolo[l,5-c]quinazolin-2-yl)piperidin-l-yl)-1H-pyrazol-1-yl)-2-methylpropan-2-ol]",720,7.4
"Cc1nn(CC(C)(C)O)cc1N1CCC[C@@H](c2nc3c4cc(F)c(OC(F)F)cc4nc(N)n3n2)C1 [Example 154, (R)-1-(4-(3-(5-amino-8-(difluoromethoxy)-9-fluoro-[1,2,4]triazolo[l,5-c]quinazolin-2-yl)piperidin-l-yl)-3-methyl-1H-pyrazol-1-yl)-2-methylpropan-2-ol]",974,1.2
"(R or S)-1-(4-((2S,5R or 2R5S)-5-(5-amino-9-fluoro- 8-methoxy-[1,2,4]triazolo[1,5-c]quinazolin-2-yl)-2- methylpiperidin-1-yl)-1H-pyrazol-1-yl)propan-2-ol [Example 240]",22.6,1.2
"(S or R)-1-(4-((2S,5R or 2R5S)-5-(5-amino-9-fluoro- 8-methoxy-[1,2,4]triazolo[1,5-c]quinazolin-2-yl)-2- methylpiperidin-1-yl)-1H-pyrazol-1-yl)propan-2-ol [Example 241]",21.7,1.3
